Test results reported in the NIST ThermoML archive (doi:10.1021/je060271a).
± gives the expanded uncertainty stated by the source.

Conditions: 343.15 K, Liquid, Vibrating tube method

CCCC(=O)OCC(COC(=O)CCC)(COC(=O)CCC)COC(=O)CCC [pentaerythritol tetrabutyrate]
mass density (27905 kPa): 1028.5 ± 1.2 kg/m3
mass density (27944 kPa): 1028.4 ± 1.2 kg/m3
mass density (27976 kPa): 1028.5 ± 1.2 kg/m3
mass density (28014 kPa): 1028.6 ± 1.2 kg/m3
mass density (28054 kPa): 1028.6 ± 1.2 kg/m3
mass density (28087 kPa): 1028.5 ± 1.2 kg/m3
mass density (28127 kPa): 1028.6 ± 1.2 kg/m3
mass density (28281 kPa): 1028.7 ± 1.2 kg/m3
mass density (28314 kPa): 1028.6 ± 1.2 kg/m3
mass density (28355 kPa): 1028.7 ± 1.2 kg/m3
mass density (28389 kPa): 1028.6 ± 1.2 kg/m3
mass density (28430 kPa): 1028.9 ± 1.2 kg/m3
mass density (28465 kPa): 1028.7 ± 1.2 kg/m3
mass density (28506 kPa): 1028.8 ± 1.2 kg/m3
mass density (28548 kPa): 1028.9 ± 1.2 kg/m3
mass density (28583 kPa): 1028.8 ± 1.2 kg/m3
mass density (28623 kPa): 1028.9 ± 1.2 kg/m3
mass density (28658 kPa): 1029 ± 1.2 kg/m3
mass density (28700 kPa): 1028.9 ± 1.2 kg/m3
mass density (28735 kPa): 1029.1 ± 1.2 kg/m3
mass density (28776 kPa): 1029 ± 1.2 kg/m3
mass density (28818 kPa): 1029 ± 1.2 kg/m3
mass density (28853 kPa): 1029.1 ± 1.2 kg/m3
mass density (28895 kPa): 1029.1 ± 1.2 kg/m3
mass density (28938 kPa): 1029.2 ± 1.2 kg/m3
mass density (28973 kPa): 1029.2 ± 1.2 kg/m3
mass density (29016 kPa): 1029.2 ± 1.2 kg/m3
mass density (29052 kPa): 1029.3 ± 1.2 kg/m3
mass density (29095 kPa): 1029.1 ± 1.2 kg/m3
mass density (29138 kPa): 1029.2 ± 1.2 kg/m3
mass density (29173 kPa): 1029.4 ± 1.2 kg/m3
mass density (29217 kPa): 1029.4 ± 1.2 kg/m3
mass density (29262 kPa): 1029.3 ± 1.2 kg/m3
mass density (29299 kPa): 1029.4 ± 1.2 kg/m3
mass density (29344 kPa): 1029.3 ± 1.2 kg/m3
mass density (29386 kPa): 1029.4 ± 1.2 kg/m3
mass density (29417 kPa): 1029.3 ± 1.2 kg/m3
mass density (29455 kPa): 1029.4 ± 1.2 kg/m3
mass density (29492 kPa): 1029.5 ± 1.2 kg/m3
mass density (29524 kPa): 1029.5 ± 1.2 kg/m3
mass density (29563 kPa): 1029.6 ± 1.2 kg/m3
mass density (29744 kPa): 1029.6 ± 1.2 kg/m3
mass density (29776 kPa): 1029.7 ± 1.2 kg/m3
mass density (29815 kPa): 1029.6 ± 1.2 kg/m3
mass density (29847 kPa): 1029.7 ± 1.2 kg/m3
mass density (29886 kPa): 1029.7 ± 1.2 kg/m3
mass density (29926 kPa): 1029.8 ± 1.2 kg/m3
mass density (29959 kPa): 1029.8 ± 1.2 kg/m3
mass density (29999 kPa): 1029.8 ± 1.2 kg/m3
mass density (30033 kPa): 1030 ± 1.2 kg/m3
mass density (30073 kPa): 1029.8 ± 1.2 kg/m3
mass density (30115 kPa): 1029.9 ± 1.2 kg/m3
mass density (30149 kPa): 1029.9 ± 1.2 kg/m3
mass density (30190 kPa): 1029.9 ± 1.2 kg/m3
mass density (30494 kPa): 1030.1 ± 1.2 kg/m3
mass density (30523 kPa): 1030.1 ± 1.2 kg/m3
mass density (30557 kPa): 1030.2 ± 1.2 kg/m3
mass density (30591 kPa): 1030.2 ± 1.2 kg/m3
mass density (30621 kPa): 1030.3 ± 1.2 kg/m3
mass density (30656 kPa): 1030.2 ± 1.2 kg/m3
mass density (30685 kPa): 1030.1 ± 1.2 kg/m3
mass density (30721 kPa): 1030.3 ± 1.2 kg/m3
mass density (30750 kPa): 1030.3 ± 1.2 kg/m3
mass density (30945 kPa): 1030.3 ± 1.2 kg/m3
mass density (30981 kPa): 1030.5 ± 1.2 kg/m3
mass density (31016 kPa): 1030.3 ± 1.2 kg/m3
mass density (31046 kPa): 1030.5 ± 1.2 kg/m3
mass density (31082 kPa): 1030.5 ± 1.2 kg/m3
mass density (31111 kPa): 1030.5 ± 1.2 kg/m3
mass density (31147 kPa): 1030.5 ± 1.2 kg/m3
mass density (31176 kPa): 1030.6 ± 1.2 kg/m3
mass density (31212 kPa): 1030.4 ± 1.2 kg/m3
mass density (31249 kPa): 1030.7 ± 1.2 kg/m3
mass density (31280 kPa): 1030.7 ± 1.2 kg/m3
mass density (31317 kPa): 1030.6 ± 1.2 kg/m3
mass density (31347 kPa): 1030.6 ± 1.2 kg/m3
mass density (31384 kPa): 1030.8 ± 1.2 kg/m3
mass density (31414 kPa): 1030.8 ± 1.2 kg/m3
mass density (31451 kPa): 1030.8 ± 1.2 kg/m3
mass density (31487 kPa): 1030.8 ± 1.2 kg/m3
mass density (31518 kPa): 1030.8 ± 1.2 kg/m3
mass density (31554 kPa): 1030.8 ± 1.2 kg/m3
mass density (31590 kPa): 1030.9 ± 1.2 kg/m3
mass density (31621 kPa): 1030.9 ± 1.2 kg/m3
mass density (31658 kPa): 1031 ± 1.2 kg/m3
mass density (31688 kPa): 1030.9 ± 1.2 kg/m3
mass density (31725 kPa): 1030.9 ± 1.2 kg/m3
mass density (31763 kPa): 1031 ± 1.2 kg/m3
mass density (31794 kPa): 1031 ± 1.2 kg/m3
mass density (31831 kPa): 1030.9 ± 1.2 kg/m3
mass density (31867 kPa): 1031.1 ± 1.2 kg/m3
mass density (31898 kPa): 1031.1 ± 1.2 kg/m3
mass density (31934 kPa): 1031.1 ± 1.2 kg/m3
mass density (31970 kPa): 1031 ± 1.2 kg/m3
mass density (32008 kPa): 1031.1 ± 1.2 kg/m3
mass density (32044 kPa): 1031.1 ± 1.2 kg/m3
mass density (32074 kPa): 1031.1 ± 1.2 kg/m3
mass density (32111 kPa): 1031.4 ± 1.2 kg/m3
mass density (32149 kPa): 1031.2 ± 1.2 kg/m3
mass density (32255 kPa): 1031.2 ± 1.2 kg/m3
mass density (32292 kPa): 1031.2 ± 1.2 kg/m3
mass density (32329 kPa): 1031.2 ± 1.2 kg/m3
mass density (32367 kPa): 1031.2 ± 1.2 kg/m3
mass density (32398 kPa): 1031.5 ± 1.2 kg/m3
mass density (32436 kPa): 1031.5 ± 1.2 kg/m3
mass density (32474 kPa): 1031.3 ± 1.2 kg/m3
mass density (32512 kPa): 1031.3 ± 1.2 kg/m3
mass density (32544 kPa): 1031.4 ± 1.2 kg/m3
mass density (32582 kPa): 1031.4 ± 1.2 kg/m3
mass density (32621 kPa): 1031.5 ± 1.2 kg/m3
mass density (32660 kPa): 1031.4 ± 1.2 kg/m3
mass density (32699 kPa): 1031.6 ± 1.2 kg/m3
mass density (32731 kPa): 1031.5 ± 1.2 kg/m3
mass density (32769 kPa): 1031.5 ± 1.2 kg/m3
mass density (32808 kPa): 1031.6 ± 1.2 kg/m3
mass density (32846 kPa): 1031.6 ± 1.3 kg/m3
mass density (32919 kPa): 1031.6 ± 1.2 kg/m3
mass density (32958 kPa): 1031.8 ± 1.4 kg/m3
mass density (33037 kPa): 1031.7 ± 1.2 kg/m3
mass density (33070 kPa): 1031.8 ± 1.2 kg/m3
mass density (33110 kPa): 1031.7 ± 1.3 kg/m3
mass density (33151 kPa): 1031.7 ± 1.2 kg/m3
mass density (33191 kPa): 1031.8 ± 1.3 kg/m3
mass density (33231 kPa): 1032 ± 1.3 kg/m3
mass density (33264 kPa): 1031.8 ± 1.3 kg/m3
mass density (33304 kPa): 1032.1 ± 1.3 kg/m3
mass density (33345 kPa): 1032.1 ± 1.3 kg/m3
mass density (33379 kPa): 1032 ± 1.3 kg/m3
mass density (33420 kPa): 1032.1 ± 1.3 kg/m3
mass density (33461 kPa): 1032.1 ± 1.3 kg/m3
mass density (33502 kPa): 1032.1 ± 1.3 kg/m3
mass density (33951 kPa): 1032.4 ± 1.3 kg/m3
mass density (33995 kPa): 1032.4 ± 1.3 kg/m3
mass density (34033 kPa): 1032.3 ± 1.3 kg/m3
mass density (34080 kPa): 1032.5 ± 1.3 kg/m3
mass density (34127 kPa): 1032.4 ± 1.3 kg/m3
mass density (34177 kPa): 1032.6 ± 1.3 kg/m3
mass density (34220 kPa): 1032.5 ± 1.3 kg/m3
mass density (34271 kPa): 1032.6 ± 1.3 kg/m3
mass density (34323 kPa): 1032.5 ± 1.3 kg/m3
mass density (34368 kPa): 1032.6 ± 1.3 kg/m3
mass density (34420 kPa): 1032.7 ± 1.3 kg/m3
mass density (34453 kPa): 1032.7 ± 1.3 kg/m3
mass density (34484 kPa): 1032.7 ± 1.3 kg/m3
mass density (34510 kPa): 1032.7 ± 1.3 kg/m3
mass density (34517 kPa): 1032.7 ± 1.3 kg/m3
mass density (34520 kPa): 1032.8 ± 1.3 kg/m3
